Measurements from the supplement of paper PMC10331698.
± gives the standard deviation of the averaged measurements.

Key:
Assay in all cases: level (log10 ratio to DMSO vehicle control); higher = higher biomarker level / cell amount than vehicle control
[1] = compound: FC(F)(F)C(F)(F)CNCC(F)(F)C(F)(F)F [Bis(1H,1H-perfluoropropyl)amine]; conditions: in DMSO
Procedure: (§1)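 BioMAP Diversity Plus panel of 12 human primary cell co-culture systems (3C, 4H, LPS, SAg, BT, BF4T, BE3C, CASM3C, HDF3CGF, KF3CT, MyoF, Mphg). Compounds were added 1 h before stimulation and left for 24 h (MyoF 48 h; BT 72 h for soluble read-outs or 6 d for IgG). Biomarkers were read by ELISA, cytotoxicity by SRB, PBMC viability and proliferation by Alamar Blue. Each well value was divided by the mean of 8 DMSO control wells on the same plate and log10 transformed; duplicate blinded samples were tested at 4 concentrations.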

[2] = compound: O=S(=O)(O)C(F)(F)C(F)(F)C(F)(F)C(F)(F)C(F)(F)C(F)(F)C(F)(F)C(F)(F)C(F)(F)C(F)(F)F [Sodium perfluorodecanesulfonate]; conditions: in DMSO
Procedure: as §1

[3] = compound: NC(=O)C(F)(F)C(F)(F)C(F)(F)C(F)F; conditions: in DMSO
Procedure: as §1

[4] = compound: O=S(=O)(F)C(F)(F)C(F)(F)C(F)(F)C(F)(F)C(F)(F)C(F)(F)C(F)(F)C(F)(F)F [Perfluorooctanesulfonyl fluoride]; conditions: in DMSO
Procedure: as §1

[5] = compound: FC(F)(F)C(F)(F)C(F)(F)C(F)(F)C(F)(F)C(F)(F)CC1CO1 [3-(Perfluorohexyl)-1,2-epoxypropane]; conditions: in DMSO
Procedure: as §1

Heptafluorobutyl iodide = compound: FC(F)(F)C(F)(F)C(F)(F)CI [Heptafluorobutyl iodide]; conditions: in DMSO
Procedure: as §1

[6] = compound: COC(=O)C(F)(F)C(F)(F)OC(F)(C(F)(F)F)C(F)(F)OC(F)=C(F)F [Methyl perfluoro(3-(1-ethenyloxypropan-2-yloxy)propanoate)]; conditions: in DMSO
Procedure: as §1

[7] = compound: C=C(C)C(=O)OCCC(F)(F)C(F)(F)C(F)(F)C(F)(F)C(F)(F)C(F)(F)F [6:2 Fluorotelomer methacrylate]; conditions: in DMSO
Procedure: as §1

[8] = compound: O=C(O)C=CC(F)(C(F)(F)F)C(F)(F)F [3-(Perfluoroisopropyl)-2-propenoic acid]; conditions: in DMSO
Procedure: as §1

Nonafluoropentanamide = compound: NC(=O)C(F)(F)C(F)(F)C(F)(F)C(F)(F)F [Nonafluoropentanamide]; conditions: in DMSO
Procedure: as §1

[9] = compound: O=C(O)C(F)(F)C(F)(F)C(F)(F)C(F)(F)C(F)(F)C(F)(F)C(F)(F)C(F)(F)C(F)(F)C(F)F [11-H-Perfluoroundecanoic acid]; conditions: in DMSO
Procedure: as §1

[10] = compound: NS(=O)(=O)C(F)(F)C(F)(F)C(F)(F)C(F)(F)C(F)(F)C(F)(F)F [Perfluorohexanesulfonamide]; conditions: in DMSO
Procedure: as §1

[11] = compound: C=CC(=O)OCC(F)(F)C(F)(F)C(F)(F)COC(=O)C=C [1H,1H,5H,5H-Perfluoro-1,5-pentanediol diacrylate]; conditions: 6700 nM; in DMSO
Procedure: as §1

[12] = compound: FC(F)(F)C(F)(F)C(F)(F)C(F)(F)C(F)(F)C(F)(F)C(F)(F)I [1-Iodopentadecafluoroheptane]; conditions: in DMSO
Procedure: as §1

[13] = compound: FC(F)(F)C(F)(F)C(F)(F)CC1CO1 [1H,1H-Heptafluorobutyl epoxide]; conditions: in DMSO
Procedure: as §1

[14] = compound: O=S(=O)(Cl)C(F)(F)C(F)(F)C(F)(F)C(F)(F)C(F)(F)C(F)(F)C(F)(F)C(F)(F)F [Perfluoro-1-octanesulfonyl chloride]; conditions: in DMSO
Procedure: as §1

Hexafluoroamylene glycol = compound: OCC(F)(F)C(F)(F)C(F)(F)CO [Hexafluoroamylene glycol]; conditions: in DMSO
Procedure: as §1

Octafluoroadipamide = compound: NC(=O)C(F)(F)C(F)(F)C(F)(F)C(F)(F)C(N)=O [Octafluoroadipamide]; conditions: in DMSO
Procedure: as §1

[15] = compound: O=S(=O)(O)CCC(F)(F)C(F)(F)C(F)(F)C(F)(F)C(F)(F)C(F)(F)F [6:2 Fluorotelomer sulfonic acid]; conditions: in DMSO
Procedure: as §1

Test System: SAg:CD62E/E-Selectin
- level (log10) ([1]; 6700 nM): 0.001 ± 0.013
- level (log10) ([1]; 20000 nM): -0.0075 ± 0.016
- level (log10) ([1]; 60000 nM): 0.01 ± 0.031
- level (log10) ([2]; 1500 nM): -0.0105 ± 0.0064
- level (log10) ([2]; 4400 nM): 0.026 ± 0.0085
- level (log10) ([2]; 13000 nM): 0.0755 ± 0.04
- level (log10) ([2]; 40000 nM): 0.138 ± 0.036
- level (log10) ([3]; 6700 nM): 0.005 ± 0.04
- level (log10) ([3]; 20000 nM): -0.0135 ± 0.039
- level (log10) ([3]; 60000 nM): 0.0155 ± 0.036
- level (log10) ([4]; 6700 nM): 0.02 ± 0.05
- level (log10) ([4]; 20000 nM): -0.0115 ± 0.0035
- level (log10) ([4]; 60000 nM): -0.0035 ± 0.019
- level (log10) ([5]; 6700 nM): -0.008 ± 0.018
- level (log10) ([5]; 20000 nM): 0.0005 ± 0.0035
- level (log10) ([5]; 60000 nM): -0.012 ± 0.027
- level (log10) (Heptafluorobutyl iodide; 6700 nM): -0.0225 ± 0.026
- level (log10) (Heptafluorobutyl iodide; 20000 nM): 0.0065 ± 0.00071
- level (log10) (Heptafluorobutyl iodide; 60000 nM): -0.025 ± 0.014
- level (log10) ([6]; 6700 nM): -0.028 ± 0.0071
- level (log10) ([6]; 20000 nM): -0.0615 ± 0.032
- level (log10) ([7]; 6700 nM): -0.011 ± 0.038
- level (log10) ([7]; 20000 nM): 0.0105 ± 0.015
- level (log10) ([7]; 60000 nM): 0.0105 ± 0.0064
- level (log10) ([8]; 6700 nM): 0 ± 0.011
- level (log10) ([8]; 20000 nM): 0.0045 ± 0.013
- level (log10) ([8]; 60000 nM): -0.006 ± 0.0042
- level (log10) (Nonafluoropentanamide; 6700 nM): -0.006 ± 0.018
- level (log10) (Nonafluoropentanamide; 20000 nM): -0.0075 ± 0.00071
- level (log10) (Nonafluoropentanamide; 60000 nM): 0.009 ± 0.0042
- level (log10) ([9]; 6700 nM): 0.007 ± 0.021
- level (log10) ([9]; 20000 nM): 0.0035 ± 0.005
- level (log10) ([10]; 6700 nM): -0.0155 ± 0.012
- level (log10) ([10]; 20000 nM): -0.05 ± 0.035
- level (log10) ([10]; 60000 nM): -0.178 ± 0.034
- level (log10) [11]: -0.469 ± 0.1
- level (log10) ([12]; 6700 nM): -0.0415 ± 0.056
- level (log10) ([12]; 20000 nM): -0.008 ± 0.044
- level (log10) ([13]; 6700 nM): -0.0065 ± 0.043
- level (log10) ([13]; 20000 nM): -0.013 ± 0.0057
- level (log10) ([13]; 60000 nM): -0.015 ± 0.016
- level (log10) ([14]; 6700 nM): -0.0055 ± 0.013
- level (log10) ([14]; 20000 nM): 0.0155 ± 0.019
- level (log10) ([14]; 60000 nM): 0.127 ± 0.016
- level (log10) (Hexafluoroamylene glycol; 6700 nM): -0.0415 ± 0.039
- level (log10) (Hexafluoroamylene glycol; 20000 nM): -0.0015 ± 0.0035
- level (log10) (Hexafluoroamylene glycol; 60000 nM): -0.0135 ± 0.00071
- level (log10) (Octafluoroadipamide; 6700 nM): 0.0015 ± 0.0078
- level (log10) (Octafluoroadipamide; 20000 nM): 0.0065 ± 0.022
- level (log10) (Octafluoroadipamide; 60000 nM): 0.0185 ± 0.028
- level (log10) ([15]; 6700 nM): -0.008 ± 0.0057
- level (log10) ([15]; 20000 nM): -0.007 ± 0.013
- level (log10) ([15]; 60000 nM): 0.038 ± 0.013

Test System: BT:PBMC Cytotoxicity
- level (log10) ([1]; 6700 nM): 0.007 ± 0.013
- level (log10) ([1]; 20000 nM): 0.005 ± 0.024
- level (log10) ([1]; 60000 nM): 0.0125 ± 0.013
- level (log10) ([2]; 1500 nM): -0.025 ± 0.023
- level (log10) ([2]; 4400 nM): -0.005 ± 0.0042
- level (log10) ([2]; 13000 nM): -0.0035 ± 0.026
- level (log10) ([2]; 40000 nM): 0.007 ± 0.035
- level (log10) ([3]; 6700 nM): -0.001 ± 0.0042
- level (log10) ([3]; 20000 nM): -0.0015 ± 0.0035
- level (log10) ([3]; 60000 nM): 0.016
- level (log10) ([4]; 6700 nM): -0.001 ± 0.016
- level (log10) ([4]; 20000 nM): -0.01 ± 0.041
- level (log10) ([4]; 60000 nM): -0.005 ± 0.0071
- level (log10) ([5]; 6700 nM): -0.016 ± 0.0028
- level (log10) ([5]; 20000 nM): -0.017 ± 0.025
- level (log10) ([5]; 60000 nM): 0.0175 ± 0.016
- level (log10) (Heptafluorobutyl iodide; 6700 nM): 0.0515 ± 0.029
- level (log10) (Heptafluorobutyl iodide; 20000 nM): 0.01 ± 0.0028
- level (log10) (Heptafluorobutyl iodide; 60000 nM): 0.0125 ± 0.032
- level (log10) ([6]; 6700 nM): 0.0195 ± 0.036
- level (log10) ([6]; 20000 nM): 0.049 ± 0.058
- level (log10) ([7]; 6700 nM): 0.0045 ± 0.021
- level (log10) ([7]; 20000 nM): 0.018 ± 0.03
- level (log10) ([7]; 60000 nM): 0.0285 ± 0.032
- level (log10) ([8]; 6700 nM): -0.016 ± 0.0042
- level (log10) ([8]; 20000 nM): 0.002 ± 0.0042
- level (log10) ([8]; 60000 nM): 0.021 ± 0.0057
- level (log10) (Nonafluoropentanamide; 6700 nM): 0.024 ± 0.0042
- level (log10) (Nonafluoropentanamide; 20000 nM): 0.02 ± 0.0028
- level (log10) (Nonafluoropentanamide; 60000 nM): 0.0155 ± 0.011
- level (log10) ([9]; 6700 nM): 0.0055 ± 0.0035
- level (log10) ([9]; 20000 nM): 0.0375 ± 0.0064
- level (log10) ([10]; 6700 nM): 0.0405 ± 0.011
- level (log10) ([10]; 20000 nM): 0.047 ± 0.027
- level (log10) ([10]; 60000 nM): 0.0775 ± 0.011
- level (log10) [11]: -0.201 ± 0.0092
- level (log10) ([12]; 6700 nM): 0.014 ± 0.0057
- level (log10) ([12]; 20000 nM): 0.0075 ± 0.049
- level (log10) ([13]; 6700 nM): 0.0175 ± 0.026
- level (log10) ([13]; 20000 nM): -0.0025 ± 0.022
- level (log10) ([13]; 60000 nM): 0.017 ± 0.013
- level (log10) ([14]; 6700 nM): 0.0495 ± 0.016
- level (log10) ([14]; 20000 nM): 0.055
- level (log10) ([14]; 60000 nM): 0.114 ± 0.0021
- level (log10) (Hexafluoroamylene glycol; 6700 nM): 0.008 ± 0.024
- level (log10) (Hexafluoroamylene glycol; 20000 nM): 0.008 ± 0.0057
- level (log10) (Hexafluoroamylene glycol; 60000 nM): -0.005 ± 0.0099
- level (log10) (Octafluoroadipamide; 6700 nM): 0.0125 ± 0.0021
- level (log10) (Octafluoroadipamide; 20000 nM): 0.018 ± 0.011
- level (log10) (Octafluoroadipamide; 60000 nM): 0.005 ± 0.051
- level (log10) ([15]; 6700 nM): 0.007
- level (log10) ([15]; 20000 nM): 0.0235 ± 0.0064
- level (log10) ([15]; 60000 nM): 0.045 ± 0.0014
